Laboratory results reported in patent US10414775B2 (Merck Sharp & Dohme Corp., priority 2016, dated 2019).

Biological target: T1, Human CYP8B1 (Homo sapiens, UniProt Q9UNU6)
T1 construct: tissue Xenotech; host or cells: human liver microsomes
T1 sequence (Q9UNU6 1-501): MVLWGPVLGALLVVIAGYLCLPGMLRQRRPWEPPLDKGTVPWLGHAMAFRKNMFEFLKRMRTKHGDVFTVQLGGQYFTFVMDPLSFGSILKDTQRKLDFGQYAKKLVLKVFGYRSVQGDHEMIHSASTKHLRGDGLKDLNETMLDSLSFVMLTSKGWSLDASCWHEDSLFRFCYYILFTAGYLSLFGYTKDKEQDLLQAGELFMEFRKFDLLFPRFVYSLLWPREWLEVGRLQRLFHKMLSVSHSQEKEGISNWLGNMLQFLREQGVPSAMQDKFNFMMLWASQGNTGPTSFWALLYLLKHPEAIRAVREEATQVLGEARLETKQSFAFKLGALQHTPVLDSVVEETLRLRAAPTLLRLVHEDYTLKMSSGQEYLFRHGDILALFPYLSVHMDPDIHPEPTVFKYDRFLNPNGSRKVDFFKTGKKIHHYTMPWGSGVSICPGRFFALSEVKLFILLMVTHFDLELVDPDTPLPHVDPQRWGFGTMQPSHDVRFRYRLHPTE
Test: Human Cyp8B1 Liver Microsome Assay
Format: biochemical
Conditions: human liver microsomes; substrate 7α-hydroxy-4-cholesten-3-one, NADPH; 30 min pre-incubation, 45 min reaction; RapidFire MS readout
Method: Human Cyp8B1 Liver Microsome Assay To a 384 well polypropylene plate (Corning 3656), 250 nl of inhibitor in 100% DMSO (1.25% final DMSO concentration) was pre-plated using an Echo liquid handler (Labcyte Inc.). Human liver microsomes (Xenotech) were diluted in of 0.1 M phosphate buffer, pH 7.4, at a concentration of 65 μg/ml and 15 μL was added to the 384 well plate. The plates were incubated at ambient room temperature for 30 minutes. After pre-incubation with inhibitor, the reaction was initiated by adding 5 μl of substrate solution (4.0 μM 7α-hydroxy-4-cholesten-3-one(Toronto Research Chemicals), 2 mM of NADPH (Sigma), 0.1 M phosphate buffer (pH 7.4). The reaction was carried out for 45 minutes at ambient room temperature and was quenched by the addition of 50 μl of acetonitrile+0.1% vol/vol formic acid (FA)+300 nM 7α-hydroxy-4-cholesten-3-one-d7 (Toronto Research Chemicals). The plates were sealed and centrifuged at 3000 rpm for 5 minutes. Plates were loaded onto the Agilent RapidFire RF300 HTMS system, wherein samples were sipped for 600 ms, and the sip sensor detection signals the diversion of sample from the loop onto a C4 solid phase extraction (SPE) cartridge, where salts are washed off for 2500 ms with a mobile phase of water with 0.1% vol/vol FA at a flow rate of 1.5 ml/min. The column path is switched, and the sample is eluted off the cartridge and flowed into the mass spectrometer for 3000 ms with a mobile phase of acetonitrile and 0.1% vol/vol FA at a flow rate of 1.25 ml/min. The aspirator tip was washed separately with water and acetonitrile between sample aspirations (each for 600 ms) to minimize carryover contamination. Mass spectrometry was carried out using a Sciex API4000 triple quadrupole mass spectrometer (Applied Biosystems, Concord, ON, Canada) equipped with electrospray ionization (ESI) operated in the positive-ion mode. The product 7α, 12α-dihydroxy-4-cholesten-3-one and internal standard 7α-hydroxy-4-cholsten-3-one-d7 were detected using multiple reaction monitoring (MRM) with Q1/Q3 transitions at m/z 417.3 to 381.3 and m/z 408.3 to 390.3, respectively, with a dwell time of 100 ms and a collision energy of 24 V for each transition. The mass spectrometer used an ESI voltage of 5000 V and a source temperature of 650° C. Extracted ion chromatograms for each transition were integrated and processed using the RapidFire Integrator software. The data for each well were normalized by monitoring product conversion with the ratio of AUCproduct/(AUCinternal standard). The data was then fitted to a four parameter logistic fit using ActivityBase Software to calculate an IC50 of the inhibitor.

Structure (SMILES)	IC50
C[C@@H]1CN(c2c(C(N)=O)cnc3cc(OCC4CC4)ccc23)CC[C@@H]1C(=O)N1CCn2c(nnc2C(F)(F)F)C1 [Example 39, 7-(cyclopropylmethoxy)-4-[(3S,4S)-3-methyl-4-{[3-(trifluoromethyl)-5,6-dihydro[1,2,4]triazolo[4,3-a]pyrazin-7(8H)-yl]carbonyl}piperidin-1-yl]quinoline-3-carboxamide]	5.29 nM
C[C@@H]1CN(c2ccnc3cc(OC(F)F)ccc23)CC[C@@H]1C(=O)N1CCn2c(nnc2C(F)(F)F)C1 [Example 33, {(3S,4S)-1-[7-(difluoromethoxy)quinolin-4-yl]-3-methylpiperidin-4-yl}[3-(trifluoromethyl)-5,6-dihydro[1,2,4]triazolo[4,3-a]pyrazin-7(8H)-yl]methanone]	8.3 nM
C[C@@H]1CN(c2ccnc3cc(C4CC4)ccc23)CC[C@@H]1C(=O)N1CCn2c(nnc2C(F)(F)F)C1 [Example 28, 7-cyclopropyl-4-[(3S,4S)-3-methyl-4-{[3-(trifluoromethyl)-5,6-dihydro[1,2,4]tria-zolo[4,3-a]pyrazin-7(8H)-yl]carbonyl}piper-idin-1-yl]quinolinium chloride]	0.66 nM
C[C@@H]1CN(c2ccnc3nc(C(F)(F)F)ccc23)CC[C@@H]1C(=O)N1CCn2c(nnc2C(F)(F)F)C1 [Example 31, {(3S,4S)-3-methyl-1-[7-(trifluoromethyl)-1,8-naphthyridin-4-yl]piperidin-4-yl}[3-(trifluoromethyl)-5,6-dihydro[1,2,4]tria-zolo[4,3-a]pyrazin-7(8H)-yl]methanone]	2700 nM
COc1ccc2c(N3CC[C@H](C(=O)N4CCn5c(nnc5C(F)(F)F)C4)[C@H](C)C3)ccnc2c1 [Example 23, [(3S,4S)-1-(7-methoxyquinolin-4-yl)-3-methylpiperidin-4-yl][3-(trifluoromethyl)-5,6-dihydro[1,2,4]tria-zolo[4,3-a]pyrazin-7(8H)-yl]methanone]	237 nM
C[C@@H]1CN(c2ccnc3cc(OC(F)(F)F)ccc23)CC[C@@H]1C(=O)N1CCn2c(nnc2C(F)(F)F)C1 [Example 29, {(3S,4S)-3-methyl-1-(7-(trifluoromethoxy)quinolin-4-yl]piperidin-4-yl}[3-(trifluoromethyl)-5,6-dihydro[1,2,4]tria-zolo[4,3-a]pyrazin-7(8H)-yl]methanone]	0.34 nM
C[C@H]1CN(c2ccnc3ccc(Cl)cc23)CC[C@H]1C(=O)N1CCn2c(nnc2C(F)(F)F)C1 (single isomer, unassigned) [Example 11b]	1180 nM
C[C@H](O)c1ccc2c(N3CC[C@H](C(=O)N4CCn5c(nnc5C(F)(F)F)C4)[C@H](C)C3)c(Cl)cnc2c1 (single isomer, unassigned) [Example 44a]	0.34 nM
C[C@@H]1CN(c2ccnc3c(Cl)c(Cl)ccc23)CC[C@@H]1C(=O)N1CCn2c(nnc2C(F)(F)F)C1 [Example 32, ((3S,4S)-1-(7,8-dichloroquinolin-4-yl)-3-methylpiperidin-4-yl)(3-(trifluoromethyl)-5,6-dihydro-[1,2,4]triazolo[4,3-a]pyrazin-7(8H)-yl)methanone]	111 nM
Cc1cc(N2CC[C@H](C(=O)N3CCn4c(nnc4C(F)(F)F)C3)[C@H](C)C2)c2cc(F)ccc2n1 [Example 15, [(3S,4S)-1-(6-fluoro-2-methylquinolin-4-yl)-3-methylpiperidin-4-yl][3-(trifluoromethyl)-5,6-dihydro[1,2,4]tria-zolo[4,3-a]pyrazin-7(8H)-yl]methanone]	245 nM
COc1cnc2c(N3CC[C@H](C(=O)N4CCn5c(nnc5C(F)(F)F)C4)[C@H](C)C3)ccnc2c1 [Example 25, [(3S,4S)-1-(7-methoxy-1,5-naphthyridin-4-yl)-3-methylpiperidin-4-yl][3-(trifluoromethyl)-5,6-dihydro[1,2,4]tria-zolo[4,3-a]pyrazin-7(8H)-yl]methanone]	307 nM

Results, then the compound that gave them:

IC50	Structure (SMILES)
1.2 nM	C[C@@H]1CN(c2c(Cl)cnc3cc([C@@H](C)O)ccc23)CC[C@@H]1C(=O)N1CCn2c(nnc2C(F)(F)F)C1 (single isomer, unassigned) [Example 44b]
0.31 nM	Cc1cnc2cc(C(C)(F)F)ccc2c1N1CC[C@H](C(=O)N2CCn3c(nnc3C(F)(F)F)C2)[C@H](C)C1 [Example 52, {(3S,4S)-1-[7-(1,1-difluoroethyl)-3-methylquinolin-4-yl]-3-methylpiperidin-4-yl}[3-(trifluoromethyl)-5,6-dihydro[1,2,4]triazolo[4,3-a]pyrazin-7(8H)-yl]methanone]
368 nM	CCNC(=O)c1ccc2c(N3CC[C@H](C(=O)N4CCn5c(nnc5C(F)(F)F)C4)[C@H](C)C3)ccnc2c1 [Example 69, N-ethyl-4-((3S,4S)-3-methyl-4-(3-(trifluoromethyl)-5,6,7,8-tetrahydro-[1,2,4]triazolo [4,3-a]pyrazine-7-carbonyl)piperidin-1-yl) quinoline-7-carboxamide]
0.61 nM	C[C@@H]1CN(c2c(C(F)F)cnc3cc(C4CC4)ccc23)CC[C@@H]1C(=O)N1CCn2c(nnc2C(F)(F)F)C1 [Example 54, {(3S,4S)-1-[7-cyclopropyl-3-(difluoromethyl)quinolin-4-yl]-3-methylpiperidin-4-yl}[3-(trifluoromethyl)-5,6-dihydro[1,2,4]triazolo[4,3-a]pyrazin-7(81H)-yl]methanone]
0.46 nM	C[C@@H]1CN(c2c(F)cnc3cc(C(F)F)ccc23)CC[C@@H]1C(=O)N1CCn2c(nnc2C(F)(F)F)C1 [Example 56, ((3S,4S)-1-(7-(difluoromethyl)-3-fluoroquinolin-4-yl)-3-methylpiperidin-4-yl)(3-(trifluoromethyl)-5,6-dihydro-[1,2,4]triazolo[4,3-a]pyrazin-7(8H)-yl)methanone]
0.32 nM	C[C@@H]1CC(c2c(Cl)cnc3cc(C(F)F)ccc23)CCN1C(=O)N1CCn2c(nnc2C(F)(F)F)C1 (stereo partly drawn) [Example 57, ((2R)-4-(3-chloro-7-(difluoromethyl)quinolin-4-yl)-2-methylpiperidin-1-yl)(3-(trifluoromethyl)-5,6-dihydro-[1,2,4]triazolo [4,3-a]pyrazin-7(8H)-yl)methanone]
1.75 nM	C[C@@H]1CN(c2c(Cl)cnc3c2CCN(C(=O)C2CC2)C3)CC[C@@H]1C(=O)N1CCn2c(nnc2C(F)(F)F)C1 [Example 65, (3-chloro-4-((3S,4S)-3-methyl-4-(3-(trifluoromethyl)-5,6,7,8-tetrahydro-[1,2,4]triazolo[4,3-a]pyrazine-7-carbonyl)piperidin-1-yl)-5,6-dihydro-1,7-naphthyridin-7(8H)-yl)(cyclopropyl)methanone]
49 nM	C[C@@H]1CN(c2ccnc3c2CCN(C(=O)OC2(C)CC2)C3)CC[C@@H]1C(=O)N1CCn2c(nnc2C(F)(F)F)C1 [Example 64, 1-methylcyclopropyl 4-((3 S,4S)-3-methyl-4-(3-(trifluoromethyl)-5,6,7,8-tetrahydro-[1,2,4]triazolo[4,3-a]pyrazine-7-carbonyl)piperidin-1-yl)-5,6-dihydro-1,7-naphthyridine-7(8H)-carboxylate]
3.6 nM	C[C@@H]1CN(c2ccnc3cc(OCC4CC4)ccc23)CC[C@@H]1C(=O)N1CCn2c(nnc2C(F)(F)F)C1 [Example 53, {(3S,4S)-1-[7-(cyclopropylmethoxy)quinolin-4-yl]-3-methylpiperidin-4-yl}[3-(trifluoromethyl)-5,6-dihydro[1,2,4]triazolo[4,3-a]pyrazin-7(8H)-yl]methanone]
